Each structure is given as a SMILES string.

We go through two compounds from patent EP1790655B1, “Biologically active peptides” (CMS Peptides Patent Holding Company Limited, priority 2001, dated 2003).

For series [1], the system named is ascitic fluid type liver cancer H22. In words: survival of mice with transplanted ascitic fluid type liver cancer H22. Conditions: 20mg/kg i.p. once per day from the day after transplanting, Kaplan-meier mean. Type of series: in vivo, BALB/c mice. The protocol:
Intraperitoneal injection, once per day. […] The cyclophosphamide groups were treated on the next day after transplanting the cancer cells. Treatment of all groups with testing substance lasted for 30 days or until the animal died unless otherwise specified.
Stock H22 cells were incubated in DMEM/F12 medium supplemented with 10% fetal bovine serum, 37°C/5%CO2 for 72 hrs, then washed 3-4 times with Hank's solution at room temperature. Adjust cell concentration to 1-2 x 10^9 per litre with Hank's solution. 0.2ml of the cell suspension was implanted to the abdominal cavity of several BALB/c mice for 6-8 days. The mice were killed by cervical vertebra dislocation. Ascitic fluid of the mice was collected asceptically and the cell concentration adjusted to 1 x 10^6 per ml with Hank's solution. 0.2ml of the cell suspension was implanted into the abdominal cavity of healthy mice to generate the H22 carrying mouse model for ascitic fluid type liver cancer. Administration of test substance started as described in section Method 1. Survival data of the mice was recorded. If the animal survived longer than the experiment, the survival days was recorded as the duration of the experiment. […] The survival index was calculated according to the following formula: Survival index = (mean survival days of treatment group-mean survival days of control group)ömean survival days of control group x 100% [formula]

For a further series, the system named is L1210 leukemia. Nature of the series: survival of mice with transplanted L1210 leukemia. Type of series: in vivo, DBA/2 mice. Conditions: 20mg/kg i.p. once per day from the day after transplanting, Kaplan-meier mean. The source says:
(§1) Intraperitoneal injection, once per day. […] Treatment of all groups with testing substance lasted for 30 days or until the animal died unless otherwise specified.
The mice were then killed by cervical vertebra dislocation and their ascitic fluid collected aseptically. […] Treatment started in the testing animals as described in section Method 1. Mean survival day was obtained by the Kaplan-meier method in the Survival option of the SPSS software. If the animal survived longer than the experiment, the survival days was entered as the duration of the experiment.

In a further series the test system is S180 sarcoma cells. In words: growth of transplanted S180 sarcoma in mice. The series is classed as in vivo, BALB/c mice. Conditions: 20mg/kg i.p. once per day from the day after transplanting. The protocol: as §1
The mice were killed by cervical vertebra dislocation. Vigorously growing and non-disrupted tumor masses were harvested and washed clean with sterile saline. The tissue was dispersed in saline to a homogenous cell suspension, in a ratio of 1 g tissue to 4 ml saline. […] Administration of test substance treatment started as described in section Method 1.
After the phagocytosis index study, the mice were killed by cervical vertebra dislocation. The liver, spleen, and cancer tissue were dissected, blotted dry, and weighed.

Series [2] deals with Masugi nephritis rat model. In words: Masugi nephritis rat model. Type of series: in vivo, Sprague Dawley (SD) rats. As to conditions: peptides 50µg/kg/day. The source says:
The anti-serum was then exuded and isolated.
Whole blood was collected from 15 healthy SD rats.
3. […] Treatment started on the day of induction.
4. […] Adequate drinking water was supplied.

On to `O=P1(N(CCCl)CCCl)NCCCO1` (centres unmarked) [Cyclo-phos phamide, Cyclophosphamide], for which the Survival days in series [1] worked out at 24.7 ± 10.2 days; in the series with L1210 leukemia, 24.0 ± 5.3 days. In the series with S180 sarcoma cells, the Tumor weight came out at 0.68 ± 0.32 g.

On to `C[C@]12CCC(=O)C=C1CC[C@@H]1[C@@H]2[C@@H](O)C[C@@]2(C)[C@H]1CC[C@]2(O)C(=O)CO` [hydrocortisone, Hydrocortisone], for which the “spleen index (mean spleen weight / mean body weight)” value in series [2] (after three weeks of treatment, hydrocortisone 3.3mg/kg/day (halved after first week) i.p.) is 4.5±1.4 x10-3. For the same compound, in series [2] (nephritis rats, hydrocortisone 3.3mg/kg/day i.p.), the growth rate entry was “slower growth rate than normal”.
